Results reported in patent US20190240225A1, “COMBINATION OF A BCL-2 INHIBITOR AND A MCL-1 INHIBITOR, USES AND PHARMACEUTICAL COMPOSITIONS THEREOF” (LES LABORATOIRES SERVIER, priority 2016, published 2019).

How the values were obtained:
Type in all cases: cell-based
RL = assay: CellTiterGlo viability, DLBCL cell line; settings: single agent, 2 days
Method: In addition, all media contained penicillin (100 IU/ml), streptomycin (100 μg/ml) and L-glutamine (2 mM). Unless otherwise mentioned, culture media and supplements were from Amimed/Bioconcept (Allschwil, Switzerland).
Cell lines were cultured at 37° C. in a humidified atmosphere containing 5% CO2 and expanded in T-75 flasks. In all cases cells were thawed from frozen stocks, expanded through ≥1 passage using appropriate dilutions, counted and assessed for viability using a CASY cell counter (Omni Life Science, Bremen, Germany) prior to plating 25 ul/well at the densities indicated in Table 1 into 384-well plates (Corning).
Stock solutions of compounds were prepared at a concentration of 10 mM in DMSO (Sigma) and stored at −20° C. Where necessary to afford a full dose-response curve, the stock solutions were pre-diluted in DMSO to 1′000-fold the desired start concentration (see Table 2). On the day after cell seeding, eight 2.5-fold serial dilutions of each compound were dispensed, either individually or in all possible permutations in a checkerboard fashion, directly into the cell assay plates using a non-contact 300D Digital Dispenser (ILCAN, Mannedorf, Switzerland) as outlined in FIG. 4. The final concentration of DMSO was 0.2% in all wells.
Effects of the single agents as well as their checkerboard combinations on cell viability were assessed after 2 days of incubation at 37° C./5% CO2 by quantification of cellular ATP levels using CellTiterGlo (Promega, Madison, Wis., USA) at 25 μL reagent/well and n=2 replicate plates per condition. Luminescence was quantified on a M1000 multipurpose platereader (ILCAN, Mannedorf, Switzerland). The number/viability of cells at time of compound addition was likewise assessed and used to assess the degree of the population doubling time of a particular cell line.
Single agent IC50s were calculated using standard four-parametric curve fitting. […] IC50 are defined as the compound concentration at which the CTG signal is reduced to 50% of that measured for the vehicle (DMSO) control.

HPB-ALL = assay: CellTiterGlo viability, T-ALL cell line; settings: Homo sapiens, HPBALL, single agent, 72 h
Method: (§1) In addition, all media contained penicillin (100 IU/ml), streptomycin (100 μg/ml) and L-glutamine (2 mM). Cell lines were cultured at 37° C. in a humidified atmosphere containing 5% CO2 and expanded in T-150 flasks. In all cases cells were thawed from frozen stocks, expanded through ≥1 passage using appropriate dilutions, counted and assessed for viability using a CASY cell counter prior to plating 150 ul/well at the densities indicated in Table 9 into 96-well plates. All cell lines were determined to be free of mycoplasma contamination in-house.
(§2) Stock solutions of compounds were prepared at a concentration of 5 mM in DMSO and stored at −20° C. In order to analyse the activity of the compounds as single agents, cells were seeded and treated with nine 2-fold serial dilutions of each compound dispensed individually directly into the cell assay plates. Effects of the compounds on cell viability were assessed after 3 days of incubation at 37° C./5% CO2 by quantification of cellular ATP levels using CellTiterGlo at 75 μL reagent/well. All the conditions were tested in triplicates. Luminescence was quantified on a multipurpose plate reader. Single agent IC50s were calculated using standard four-parametric curve fitting. IC50 is defined as the compound concentration at which the CTG signal is reduced to 50% of that measured for the vehicle (DMSO) control.
(§3) In order to analyse the activity of the compounds in combination, cells were seeded and treated with seven or eight 3.16-fold serial dilutions of each compound dispensed, either individually or in all possible permutations in a checkerboard fashion, directly into the cell assay plates as indicated in FIG. 1. Effects of the single agents as well as their checkerboard combinations on cell viability were assessed after 3 days of incubation at 37° C./5% CO2 by quantification of cellular ATP levels using CellTiterGlo at 75 μL reagent/well. For B-ALL cell lines, two independent experiments, each one performed in duplicates, were performed. For T-ALL cell lines, one experiment performed in triplicate was performed. Luminescence was quantified on a multipurpose plate reader.
(§4) Potential synergistic interactions between compound combinations were assessed using the Excess Inhibition 2D matrix according to the Loewe additivity model and are reported as Synergy Score (Lehar et al, Nat Biotechnol. 2009 July; 27(7): 659-666). All calculations were performed using Chalice TM Bioinformatics Software available in Horizon website. The doubling time indicated in Table 9 is the mean of the doubling time obtained in the different passages (in T-150 flasks) performed from the thawing of the cells to their seeding in the 96-well plates.

TALL-104 = assay: CellTiterGlo viability, T-ALL cell line; settings: single agent, 72 h
Method: as §1, §2, §3, §4

BE-13 = assay: CellTiterGlo viability, T-ALL cell line; settings: single agent, 72 h
Method: as §1, §2, §3, §4

CML-T1 = assay: CellTiterGlo viability, T-ALL cell line; settings: single agent, 72 h
Method: as §1, §2, §3, §4

MV4;11 = assay: CellTiterGlo viability, AML cell line; settings: Homo sapiens, 72 h, single agent, 3 days
Method: (§5) In addition, all media contained penicillin (100 IU/ml), streptomycin (100 μg/ml) and L-glutamine (2 mM).
as §1, with “Cell” for “In addition, all media contained penicillin (100 IU/ml), streptomycin (100 μg/ml) and L-glutamine (2 mM). Cell”, “Table 1” for “Table 9”
(§6) Stock solutions of compounds were prepared at a concentration of 5 mM in DMSO and stored at −20° C.
as §2, with “In” for “Stock solutions of compounds were prepared at a concentration of 5 mM in DMSO and stored at −20° C. In”, “experiments” for “conditions”, “performed” for “tested”
as §3, with “9.” for “1.”, “Two” for “For B-ALL cell lines, two”, “performed.” for “performed. For T-ALL cell lines, one experiment performed in triplicate was performed.”
(§7) Potential synergistic interactions between compound combinations were assessed using the Excess Inhibition 2D matrix according to the Loewe additivity model and are reported as Synergy Score (Lehar et al, Nat Biotechnol. 2009 July; 27(7): 659-666). All calculations were performed using Clalice™ Bioinformatics Software.

THP-1 = assay: CellTiterGlo viability, AML cell line; settings: Homo sapiens, 72 h, single agent, 3 days
Method: as §5
as §1, with “Cell” for “In addition, all media contained penicillin (100 IU/ml), streptomycin (100 μg/ml) and L-glutamine (2 mM). Cell”, “Table 1” for “Table 9”
as §6
as §2, with “In” for “Stock solutions of compounds were prepared at a concentration of 5 mM in DMSO and stored at −20° C. In”, “experiments” for “conditions”, “performed” for “tested”
as §3, with “9.” for “1.”, “Two” for “For B-ALL cell lines, two”, “performed.” for “performed. For T-ALL cell lines, one experiment performed in triplicate was performed.”
as §7

PL-21 = assay: CellTiterGlo viability, AML cell line; settings: 72 h, single agent, 3 days
Method: as §5
as §1, with “Cell” for “In addition, all media contained penicillin (100 IU/ml), streptomycin (100 μg/ml) and L-glutamine (2 mM). Cell”, “Table 1” for “Table 9”
as §6
as §2, with “In” for “Stock solutions of compounds were prepared at a concentration of 5 mM in DMSO and stored at −20° C. In”, “experiments” for “conditions”, “performed” for “tested”
as §3, with “9.” for “1.”, “Two” for “For B-ALL cell lines, two”, “performed.” for “performed. For T-ALL cell lines, one experiment performed in triplicate was performed.”
as §7

KG1a = assay: CellTiterGlo viability, AML cell line; settings: Homo sapiens, KG-1a, 72 h, single agent, 3 days
Method: as §5
as §1, with “Cell” for “In addition, all media contained penicillin (100 IU/ml), streptomycin (100 μg/ml) and L-glutamine (2 mM). Cell”, “Table 1” for “Table 9”
as §6
as §2, with “In” for “Stock solutions of compounds were prepared at a concentration of 5 mM in DMSO and stored at −20° C. In”, “experiments” for “conditions”, “performed” for “tested”
as §3, with “9.” for “1.”, “Two” for “For B-ALL cell lines, two”, “performed.” for “performed. For T-ALL cell lines, one experiment performed in triplicate was performed.”
as §7

EOL-1 = assay: CellTiterGlo viability, AML cell line; settings: Homo sapiens, EOL1, 72 h, single agent, 3 days
Method: as §5
as §1, with “Cell” for “In addition, all media contained penicillin (100 IU/ml), streptomycin (100 μg/ml) and L-glutamine (2 mM). Cell”, “Table 1” for “Table 9”
as §6
as §2, with “In” for “Stock solutions of compounds were prepared at a concentration of 5 mM in DMSO and stored at −20° C. In”, “experiments” for “conditions”, “performed” for “tested”
as §3, with “9.” for “1.”, “Two” for “For B-ALL cell lines, two”, “performed.” for “performed. For T-ALL cell lines, one experiment performed in triplicate was performed.”
as §7

Kasumi-1 = assay: CellTiterGlo viability, AML cell line; settings: Homo sapiens, 72 h, single agent, 3 days
Method: as §5
as §1, with “Cell” for “In addition, all media contained penicillin (100 IU/ml), streptomycin (100 μg/ml) and L-glutamine (2 mM). Cell”, “Table 1” for “Table 9”
as §6
as §2, with “In” for “Stock solutions of compounds were prepared at a concentration of 5 mM in DMSO and stored at −20° C. In”, “experiments” for “conditions”, “performed” for “tested”
as §3, with “9.” for “1.”, “Two” for “For B-ALL cell lines, two”, “performed.” for “performed. For T-ALL cell lines, one experiment performed in triplicate was performed.”
as §7

HL-60 = assay: CellTiterGlo viability, AML cell line; settings: Homo sapiens, 72 h, single agent, 3 days
Method: as §5
as §1, with “Cell” for “In addition, all media contained penicillin (100 IU/ml), streptomycin (100 μg/ml) and L-glutamine (2 mM). Cell”, “Table 1” for “Table 9”
as §6
as §2, with “In” for “Stock solutions of compounds were prepared at a concentration of 5 mM in DMSO and stored at −20° C. In”, “experiments” for “conditions”, “performed” for “tested”
as §3, with “9.” for “1.”, “Two” for “For B-ALL cell lines, two”, “performed.” for “performed. For T-ALL cell lines, one experiment performed in triplicate was performed.”
as §7

KG1 = assay: CellTiterGlo viability, AML cell line; settings: Homo sapiens, KG-1, 72 h, single agent, 3 days
Method: as §5
as §1, with “Cell” for “In addition, all media contained penicillin (100 IU/ml), streptomycin (100 μg/ml) and L-glutamine (2 mM). Cell”, “Table 1” for “Table 9”
as §6
as §2, with “In” for “Stock solutions of compounds were prepared at a concentration of 5 mM in DMSO and stored at −20° C. In”, “experiments” for “conditions”, “performed” for “tested”
as §3, with “9.” for “1.”, “Two” for “For B-ALL cell lines, two”, “performed.” for “performed. For T-ALL cell lines, one experiment performed in triplicate was performed.”
as §7

MOLM-13 = assay: CellTiterGlo viability, AML cell line; settings: Homo sapiens, 72 h, single agent, 3 days
Method: as §5
as §1, with “Cell” for “In addition, all media contained penicillin (100 IU/ml), streptomycin (100 μg/ml) and L-glutamine (2 mM). Cell”, “Table 1” for “Table 9”
as §6
as §2, with “In” for “Stock solutions of compounds were prepared at a concentration of 5 mM in DMSO and stored at −20° C. In”, “experiments” for “conditions”, “performed” for “tested”
as §3, with “9.” for “1.”, “Two” for “For B-ALL cell lines, two”, “performed.” for “performed. For T-ALL cell lines, one experiment performed in triplicate was performed.”
as §7

Nomo-1 = assay: CellTiterGlo viability, AML cell line; settings: Homo sapiens, 72 h, single agent, 3 days
Method: as §5
as §1, with “Cell” for “In addition, all media contained penicillin (100 IU/ml), streptomycin (100 μg/ml) and L-glutamine (2 mM). Cell”, “Table 1” for “Table 9”
as §6
as §2, with “In” for “Stock solutions of compounds were prepared at a concentration of 5 mM in DMSO and stored at −20° C. In”, “experiments” for “conditions”, “performed” for “tested”
as §3, with “9.” for “1.”, “Two” for “For B-ALL cell lines, two”, “performed.” for “performed. For T-ALL cell lines, one experiment performed in triplicate was performed.”
as §7

ML-2 = assay: CellTiterGlo viability, AML cell line; settings: Homo sapiens, 72 h, single agent, 3 days
Method: as §5
as §1, with “Cell” for “In addition, all media contained penicillin (100 IU/ml), streptomycin (100 μg/ml) and L-glutamine (2 mM). Cell”, “Table 1” for “Table 9”
as §6
as §2, with “In” for “Stock solutions of compounds were prepared at a concentration of 5 mM in DMSO and stored at −20° C. In”, “experiments” for “conditions”, “performed” for “tested”
as §3, with “9.” for “1.”, “Two” for “For B-ALL cell lines, two”, “performed.” for “performed. For T-ALL cell lines, one experiment performed in triplicate was performed.”
as §7

GDM-1 = assay: CellTiterGlo viability, AML cell line; settings: Homo sapiens, 72 h, single agent, 3 days
Method: as §5
as §1, with “Cell” for “In addition, all media contained penicillin (100 IU/ml), streptomycin (100 μg/ml) and L-glutamine (2 mM). Cell”, “Table 1” for “Table 9”
as §6
as §2, with “In” for “Stock solutions of compounds were prepared at a concentration of 5 mM in DMSO and stored at −20° C. In”, “experiments” for “conditions”, “performed” for “tested”
as §3, with “9.” for “1.”, “Two” for “For B-ALL cell lines, two”, “performed.” for “performed. For T-ALL cell lines, one experiment performed in triplicate was performed.”
as §7

Compound: Cl.O=C(c1cc(-c2cc3c(cc2C(=O)N2Cc4ccccc4C[C@H]2CN2CCOCC2)OCO3)n2c1CCCC2)N(c1ccccc1)c1ccc(O)cc1 [Compound 1, HCl, N-(4-hydroxyphenyl)-3-{6-[((3S)-3-(4-morpholinylmethyl)-3,4-dihydro-2(1H)-isoquinolinyl)carbonyl]-1,3-benzodioxol-5-yl}-N-phenyl-5,6,7,8-tetrahydro-1-indolizine carboxamide hydrochloride]
- IC50 (RL; Homo sapiens, 48 h, read-out: Abs IC50): 0.281 µM
- Max Inh (RL): 99.0%
- IC50 (HPB-ALL): 4.5 µM
- IC50 (TALL-104): 15.9 µM
- IC50 (BE-13): 6.7 µM
- IC50 (CML-T1): 15 µM
- IC50 (MV4;11): 0.03 µM
- IC50 (THP-1): 0.75 µM
- IC50 (PL-21): 2.78 µM
- IC50 (KG1a): 1.75 µM
- IC50 (EOL-1): 0.04 µM
- IC50 (Kasumi-1): 0.77 µM
- IC50 (HL-60): 1.42 µM
- IC50 (KG1): 4.7 µM
- IC50 (MOLM-13): 0.04 µM
- IC50 (Nomo-1): 7.45 µM
- IC50 (ML-2): 0.04 µM
- IC50 (GDM-1): 0.06 µM
